Assay results reported in PubChem BioAssay AID248 (DTP/NCI, 2004).
Several values for one entry are separate records, joined by “and”; a condition that tells them apart may be missing. Equal entries are not always repeated. Toxic doses and inconclusive results are not listed. Cut-off read from the data, not from the text of the source: active = T/C of 150% or more; inactive = T/C below 125%.

Test system: L1210 leukemia ip in BDF1 mice, survival T/C
Assay: NCI In Vivo Anticancer Drug Screen. Data for tumor model L1210 Leukemia (intraperitoneal) in B6D2F1 (BDF1) mice
Details: endpoint: mean survival time, higher = longer survival
Outline: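 Read-out is survival time, reported as the treated-group measurement over the vehicle-control measurement.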

[1] = dose: 12.5 mg/kg/injection, schedule: Q01DX009 (ip), vehicle: saline
[2] = dose: 25.0 mg/kg/injection, schedule: Q01DX009 (ip), vehicle: saline
[3] = dose: 50.0 mg/kg/injection, schedule: Q01DX009 (ip), vehicle: saline
[4] = dose: 100.0 mg/kg/injection, schedule: Q01DX009 (ip), vehicle: saline
[5] = dose: 200.0 mg/kg/injection, schedule: Q01DX009 (ip), vehicle: saline
[6] = dose: 200.0 mg/kg/injection, schedule: Q04DX003 (ip), vehicle: Klucel (hydroxypropylcellulose) (HPC)
[7] = dose: 100.0 mg/kg/injection, schedule: Q04DX003 (ip), vehicle: saline with Tween-80
[8] = dose: 200.0 mg/kg/injection, schedule: Q04DX003 (ip), vehicle: saline with Tween-80
[9] = dose: 400.0 mg/kg/injection, schedule: Q04DX003 (ip), vehicle: saline with Tween-80
[10] = dose: 100.0 mg/kg/injection, schedule: Q01DX009 (ip), vehicle: Klucel (hydroxypropylcellulose) (HPC)
[11] = dose: 100.0 mg/kg/injection, schedule: Q04DX003 (ip), vehicle: Klucel (hydroxypropylcellulose) (HPC)
[12] = dose: 200.0 mg/kg/injection, schedule: Q01DX009 (ip), vehicle: Klucel (hydroxypropylcellulose) (HPC)
[13] = dose: 400.0 mg/kg/injection, schedule: Q01DX009 (ip), vehicle: Klucel (hydroxypropylcellulose) (HPC)
[14] = dose: 400.0 mg/kg/injection, schedule: Q04DX003 (ip), vehicle: Klucel (hydroxypropylcellulose) (HPC)
[15] = dose: 100.0 mg/kg/injection, schedule: Q01DX001 (ip), vehicle: Klucel (hydroxypropylcellulose) (HPC)
[16] = dose: 200.0 mg/kg/injection, schedule: Q01DX001 (ip), vehicle: Klucel (hydroxypropylcellulose) (HPC)
[17] = dose: 400.0 mg/kg/injection, schedule: Q01DX001 (ip), vehicle: Klucel (hydroxypropylcellulose) (HPC)
[18] = dose: 100.0 mg/kg/injection, schedule: Q01DX001 (ip), vehicle: saline
[19] = dose: 200.0 mg/kg/injection, schedule: Q01DX001 (ip), vehicle: saline
[20] = dose: 400.0 mg/kg/injection, schedule: Q01DX001 (ip), vehicle: saline
[21] = dose: 100.0 mg/kg/injection, schedule: Q01DX009 (ip), vehicle: saline with Tween-80
[22] = dose: 200.0 mg/kg/injection, schedule: Q01DX009 (ip), vehicle: saline with Tween-80
[23] = dose: 50.0 mg/kg/injection, schedule: Q01DX009 (ip), vehicle: Klucel (hydroxypropylcellulose) (HPC)
[24] = dose: 75.0 mg/kg/injection, schedule: Q01DX001 (ip), vehicle: Klucel (hydroxypropylcellulose) (HPC)
[25] = dose: 150.0 mg/kg/injection, schedule: Q01DX001 (ip), vehicle: Klucel (hydroxypropylcellulose) (HPC)
[26] = dose: 300.0 mg/kg/injection, schedule: Q01DX001 (ip), vehicle: Klucel (hydroxypropylcellulose) (HPC)

Measured: T/C

NC(=O)OCCCc1ccccc1
inactive: [1] 112 % of control | [2] 105 % of control | dose: 25.0 mg/kg/injection, schedule: Q04DX003 (ip), vehicle: Klucel (hydroxypropylcellulose) (HPC) 101 % of control | [3] 103 % of control | dose: 50.0 mg/kg/injection, schedule: Q04DX003 (ip), vehicle: Klucel (hydroxypropylcellulose) (HPC) 104 % of control | [4] 112 % of control | [5] 105 % of control | [6] 98 % of control

CCC(=O)Nc1cccc(OC(=O)NC(C)CC)c1 (centres undefined)
inactive: [7] 93 % of control | [8] 97 % of control | [9] 92 % of control

O=C(OC1OCC(OCc2ccccc2)C(OCc2ccccc2)C1OCc1ccccc1)c1ccc([N+](=O)[O-])cc1 (centres undefined)
inactive: dose: 100.0 mg/kg/injection, schedule: Q01DX001 (ip), vehicle: other 88 % of control | dose: 200.0 mg/kg/injection, schedule: Q01DX001 (ip), vehicle: other 90 % of control | dose: 400.0 mg/kg/injection, schedule: Q01DX001 (ip), vehicle: other 90 % of control

CCCC(=O)NN=C(C)C
inactive: [1] 109 % of control | [2] 109 % of control | [3] 95 % of control

O=C(O)Cc1ccc(N=Nc2c(O)c(C(=O)O)cc3ccccc23)cc1
inactive: [10] 96 % of control | [11] 93 % of control | [12] 105 % of control | [6] 100 % of control | [13] 100 % of control | [14] 103 % of control

CCOc1ccn(C2OC(CO)C(OC3OC(COC(C)=O)C(OC(C)=O)C(OC(C)=O)C3OC(C)=O)C(OC(C)=O)C2OC(C)=O)c(=O)n1 (centres undefined)
inactive: dose: 22.5 mg/kg/injection, schedule: Q01DX001 (ip), vehicle: carboxymethylcellulose (CMC) 100 % of control | dose: 45.0 mg/kg/injection, schedule: Q01DX001 (ip), vehicle: carboxymethylcellulose (CMC) 103 % of control | dose: 90.0 mg/kg/injection, schedule: Q01DX001 (ip), vehicle: carboxymethylcellulose (CMC) 97 % of control | dose: 180.0 mg/kg/injection, schedule: Q01DX001 (ip), vehicle: carboxymethylcellulose (CMC) 100 % of control

O=C(COc1ccccc1Cl)Nc1cccnc1
inactive: [15] 113 % of control | [16] 103 % of control | [17] 103 % of control

CCCCCCCC[Si](C)(C)C
inactive: [18] 100 % of control | [19] 97 % of control | [20] 115 % of control

COC(OC)c1[nH]c(=S)[nH]c(=O)c1Cc1cc([N+](=O)[O-])ccc1O
inactive: [21] 100 % of control | [7] 101 % of control | [22] 91 % of control | [8] 97 % of control | dose: 400.0 mg/kg/injection, schedule: Q01DX009 (ip), vehicle: saline with Tween-80 93 % of control | [9] 94 % of control

C/C=C/SC(=Nc1ccccc1)Nc1ccccc1
inactive: [15] 96 % of control | [16] 94 % of control | [17] 98 % of control

CCc1ccccc1NC(=O)Sc1ccccc1C
inactive: [10] 90 % of control | [11] 110 % of control | [12] 87 % of control | [6] 102 % of control | [14] 100 % of control

Cc1ccc(NC(=O)NCCO)cc1C
inactive: dose: 100.0 mg/kg/injection, schedule: Q04DX002 (ip), vehicle: saline with Tween-80 95 % of control | dose: 200.0 mg/kg/injection, schedule: Q04DX002 (ip), vehicle: saline with Tween-80 95 % of control

NC(Cc1ccccc1Cl)C(=O)O (centres undefined)
inactive: [23] 102 % of control | [24] 86 % of control | [10] 102 % of control | [25] 99 % of control | [12] 102 % of control | [26] 96 % of control

Cc1ccc(-n2c(O)c(N=Nc3ccc(Cl)cc3)c(=O)n(-c3ccccc3)c2=S)cc1
inactive: dose: 37.5 mg/kg/injection, schedule: Q01DX001 (ip), vehicle: Klucel (hydroxypropylcellulose) (HPC) 96 % of control | [24] 92 % of control | [25] 102 % of control

C/C=C/CCCCC
inactive: dose: 50.0 mg/kg/injection, schedule: Q01DX009 (ip), vehicle: saline with Tween-80 102 % of control | [21] 118 % of control | [22] 94 % of control

O=S(=O)(Cc1ccccc1)C(CCCc1ccccc1)S(=O)(=O)Cc1ccccc1
inactive: dose: 100.0 mg/kg/injection, schedule: Q01DX001 (ip), vehicle: carboxymethylcellulose (CMC) 97 % of control | dose: 200.0 mg/kg/injection, schedule: Q01DX001 (ip), vehicle: carboxymethylcellulose (CMC) 92 % of control | dose: 400.0 mg/kg/injection, schedule: Q01DX001 (ip), vehicle: carboxymethylcellulose (CMC) 91 % of control

O=C1CN(CCN2CC(=O)N(Cc3ccccc3)C2=S)C(=S)N1Cc1ccccc1
inactive: dose: 100.0 mg/kg/injection, schedule: Q04DX002 (ip), vehicle: Klucel (hydroxypropylcellulose) (HPC) 88 % of control | dose: 200.0 mg/kg/injection, schedule: Q04DX002 (ip), vehicle: Klucel (hydroxypropylcellulose) (HPC) 88 % of control | dose: 400.0 mg/kg/injection, schedule: Q04DX002 (ip), vehicle: Klucel (hydroxypropylcellulose) (HPC) 92 % of control

CN(C)CCNCc1ccccc1
inactive: dose: 44.4 mg/kg/injection, schedule: Q01DX001 (ip), vehicle: saline 95 % of control and 98 % of control | dose: 66.7 mg/kg/injection, schedule: Q01DX001 (ip), vehicle: saline 96 % of control and 102 % of control | dose: 75.0 mg/kg/injection, schedule: Q01DX001 (ip), vehicle: saline 98 % of control | dose: 150.0 mg/kg/injection, schedule: Q01DX001 (ip), vehicle: saline 91 % of control and 94 % of control | dose: 300.0 mg/kg/injection, schedule: Q01DX001 (ip), vehicle: saline 95 % of control

CN1c2ccc(Br)c[c]2[Sn]2([c]3cc(Br)ccc31)[c]1cc(Br)ccc1N(C)c1ccc(Br)c[c]12
inactive: dose: 100.0 mg/kg/injection, schedule: Q01DX001 (ip), vehicle: steriod suspending solution 104 % of control | dose: 200.0 mg/kg/injection, schedule: Q01DX001 (ip), vehicle: steriod suspending solution 107 % of control | dose: 400.0 mg/kg/injection, schedule: Q01DX001 (ip), vehicle: steriod suspending solution 109 % of control

CCOP(=S)(OCC)SC(C)(C)C
inactive: dose: 25.0 mg/kg/injection, schedule: Q04DX003 (ip), vehicle: saline with Tween-80 95 % of control | dose: 50.0 mg/kg/injection, schedule: Q04DX003 (ip), vehicle: saline with Tween-80 103 % of control | [7] 104 % of control and 108 % of control

S=c1nc[nH]c2ncccc12
inactive: [11] 104 % of control | [6] 100 % of control | [14] 97 % of control

Cc1cc2oc(/C=N\Nc3nc4ccccc4s3)c(C)c2cc1C
inactive: [10] 94 % of control | [12] 96 % of control | [13] 108 % of control

COc1cc(Cl)c(CC(=O)c2c[nH]c3ccccc23)cc1OC
inactive: dose: 50.0 mg/kg/injection, schedule: Q01DX001 (ip), vehicle: saline 96 % of control | [18] 93 % of control | [4] 95 % of control | [19] 96 % of control | [5] 98 % of control | [20] 96 % of control | dose: 400.0 mg/kg/injection, schedule: Q01DX009 (ip), vehicle: saline 101 % of control

Nc1cc(Cl)c2[nH]cnc2n1
active: dose: 33.0 mg/kg/injection, schedule: Q01DX009 (ip), vehicle: Klucel (hydroxypropylcellulose) (HPC) 179 % of control | [23] 151 % of control and 159 % of control | dose: 75.0 mg/kg/injection, schedule: Q01DX009 (ip), vehicle: Klucel (hydroxypropylcellulose) (HPC) 161 % of control
inactive: [15] 118 % of control | [10] 97 % of control | dose: 133.0 mg/kg/injection, schedule: Q01DX001 (ip), vehicle: Klucel (hydroxypropylcellulose) (HPC) 119 % of control | [16] 121 % of control | [26] 122 % of control
